US20120129811A1, “TRICYCLIC INHIBITORS OF PRO-MATRIX METALLOPROTEINASE ACTIVATION” (priority 2010, published 2012)
Counter-ions that a name gives are not always drawn.

Key:
[1] = biological target: T1, proMMP9(67-444;ΔFnII) (SEQ ID NO:5) (Homo sapiens, UniProt P14780, DEL216-390); experiment: ThermoFluor binding assay with proMMP9(67-444;ΔFnII)
T1 construct: start methionine (N); made in house; host or cells: E. coli BL21(DE3) RIL
T1 sequence (P14780 with tags, fused parts or gaps DEL216-390): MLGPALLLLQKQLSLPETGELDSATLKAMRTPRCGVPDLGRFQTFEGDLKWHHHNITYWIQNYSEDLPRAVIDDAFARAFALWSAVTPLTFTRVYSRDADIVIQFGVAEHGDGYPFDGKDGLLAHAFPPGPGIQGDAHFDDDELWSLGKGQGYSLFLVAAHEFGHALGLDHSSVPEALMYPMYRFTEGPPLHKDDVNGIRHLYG
Experimental: (§1) The ThermoFluor® (TF) assay is a 384-well plate-based binding assay that measures thermal stability of proteins (Biomol Screen 2001, 6, 429-40; Biochemistry 2005, 44, 5258-66). The experiments were carried out using instruments available from Johnson & Johnson Pharmaceutical Research & Development, LLC. TF dye used in all experiments was […] (1,8-ANS) (Invitrogen: A-47).
(§2) Compounds were arranged in a pre-dispensed plate (Greiner Bio-one: 781280), wherein compounds were serially diluted in 100% DMSO across 11 columns within a series. Columns 12 and 24 were used as DMSO reference and contained no compound. For multiple compound concentration-response experiments, the compound aliquots (50 nL) were robotically predispensed directly into black 384-well polypropylene PCR microplates (Abgene: TF-0384/k) using a Cartesian Hummingbird liquid handler (DigiLab, Holliston, Mass.). Following compound dispense, protein and dye solutions were added to achieve the final assay volume of 3 μL. The assay solutions were overlayed with 1 μL of silicone oil (Fluka, type DC 200: 85411) to prevent evaporation.
(§3) Assay plates were robotically loaded onto a thermostatically controlled PCR-type thermal block and then heated from 40 to 90° C. at a ramp-rate of 1° C./min for all experiments. Fluorescence was measured by continuous illumination with UV light (Hamamatsu LC6) supplied via fiber optics and filtered through a band-pass filter (380-400 nm; >60D cutoff). Fluorescence emission of the entire 384-well plate was detected by measuring light intensity using a CCD camera (Sensys, Roper Scientific) filtered to detect 500±25 nm, resulting in simultaneous and independent readings of all 384 wells. A single image with 20-sec exposure time was collected at each temperature, and the sum of the pixel intensity in a given area of the assay plate was recorded vs temperature and fit to standard equations to yield the Tm (J Biomol Screen 2001, 6, 429-40).
(§4) Thermodynamic parameters necessary for fitting compound binding for each proMMP were estimated by differential scanning calorimetry (DSC) and from ThermoFluor® data. The heat capacity of unfolding for each protein was estimated from the molecular weight and from ThermoFluor® dosing data.
ThermoFluor® with proMMP9(67-444;ΔFnM (SEQ ID NO:5)
The protein sample preparations had to include a desalting buffer exchange step via a PD-10 gravity column (GE Healthcare). The desalting buffer exchange was performed prior to diluting the protein to the final assay concentration of 3.5 μM proMMP9(67-444;ΔFnII) (SEQ ID NO:5). The concentration of proMMP9(67-444;ΔFnII) (SEQ ID NO:5) was determined spectrophotometrically based on a calculated extinction coefficient of ε280=33900 M^−1 cm^−1, a calculated molecular weight of 22.6 kDa, and calculated pI of 5.20. ThermoFluor® reference conditions were defined as follows: 80 μg/mL (3.5 μM) proMMP9(67-444;ΔFnII) (SEQ ID NO:5), 50 μM 1,8-ANS, pH 7.0 Buffer (50 mM HEPES pH 7.0, 100 mM NaCl, 0.001% Tween-20, 2.5 mM MgCl2, 300 μM CaCl2). The thermodynamic parameters for proMMP9(67-444;ΔFnII) (SEQ ID NO:5) are as follows: Tm (° C.)=63 (+/−0.1), ΔUH(Tm)(cal mol^−1)=105000(+/−5000), ΔUS(Tm) (cal mol^−1 K^−1)=450, ΔUCp (cal mol^−1 K^−1)=2000.

[2] = biological target: T2, full-length proMMP9(1-707) activation by catalytic MMP3 (Homo sapiens, UniProt P14780, R574P); experiment: proMMP9/MMP3 P126 Activation Assay; format: biochemical
T2 construct: made in house; host or cells: proMMP9: HEK293 (secreted); MMP3: E. coli
T2 sequence (P14780 20-707 R574P): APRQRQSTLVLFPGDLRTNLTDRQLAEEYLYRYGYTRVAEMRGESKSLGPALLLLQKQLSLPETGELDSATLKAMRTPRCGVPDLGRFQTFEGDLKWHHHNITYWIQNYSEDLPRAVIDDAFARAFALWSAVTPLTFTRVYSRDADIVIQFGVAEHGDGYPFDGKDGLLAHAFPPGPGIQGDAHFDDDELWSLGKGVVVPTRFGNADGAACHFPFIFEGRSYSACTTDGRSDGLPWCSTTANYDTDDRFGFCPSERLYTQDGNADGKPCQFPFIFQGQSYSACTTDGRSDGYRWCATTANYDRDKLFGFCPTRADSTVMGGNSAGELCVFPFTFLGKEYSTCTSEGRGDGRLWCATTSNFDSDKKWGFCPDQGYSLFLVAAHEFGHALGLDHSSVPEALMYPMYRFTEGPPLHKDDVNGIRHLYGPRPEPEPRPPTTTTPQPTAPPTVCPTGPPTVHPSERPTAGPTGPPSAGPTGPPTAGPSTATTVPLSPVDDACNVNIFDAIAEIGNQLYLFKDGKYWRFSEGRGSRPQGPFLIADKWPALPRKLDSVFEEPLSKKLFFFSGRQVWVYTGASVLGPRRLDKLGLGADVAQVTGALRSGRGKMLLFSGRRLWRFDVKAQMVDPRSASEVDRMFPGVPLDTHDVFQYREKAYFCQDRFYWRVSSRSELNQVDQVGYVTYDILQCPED
Experimental: proMMP9/MMP3 P126 Activation Assay
The reaction volume was 50 μL. […] Reactivity of residual MMP3 towards P-126 substrate was minimal under these conditions.

[3] = biological target: T3, proMMP9(20-445;ΔFnII) (SEQ ID NO:6) (Homo sapiens, UniProt P14780, DEL216-390); experiment: ThermoFluor binding assay with proMMP9(20-445;ΔFnII)
T3 construct: start methionine (N); made in house; host or cells: E. coli BL21(DE3) RIL
T3 sequence (P14780 with tags, fused parts or gaps DEL216-390): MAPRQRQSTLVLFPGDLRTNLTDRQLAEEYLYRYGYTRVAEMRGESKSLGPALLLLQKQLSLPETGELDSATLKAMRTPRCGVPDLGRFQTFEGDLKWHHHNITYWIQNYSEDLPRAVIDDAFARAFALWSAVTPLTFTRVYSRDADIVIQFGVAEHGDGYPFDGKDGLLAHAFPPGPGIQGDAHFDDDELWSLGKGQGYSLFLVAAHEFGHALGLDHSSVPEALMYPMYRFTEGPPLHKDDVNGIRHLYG
Experimental: as §1, §2, §3, §4
ThermoFluor® with proMMP9(20-445; ΔFnII (SEQ ID NO:6)
The protein sample preparations included a desalting buffer exchange step via a PD-10 gravity column (GE Healthcare). The desalting buffer exchange was performed prior to diluting the protein to the final assay concentration of 2.8 μM proMMP9(20-445;ΔFnII) (SEQ ID NO:6). The concentration of proMMP9(20-445;ΔFnII) (SEQ ID NO:6) was determined spectrophotometrically based on a calculated extinction coefficient of ε280=39880 M^−1 cm^−1, a calculated molecular weight of 28.2 kDa, and calculated pI of 5.5. ThermoFluor® reference conditions were define as follows: 80 μg/mL (2.8 μM) proMMP9(20-445;ΔFnII) (SEQ ID NO:6), 50 μM 1,8-ANS, pH 7.0 Buffer (50 mM HEPES pH 7.0, 100 mM NaCl, 0.001% Tween-20, 2.5 mM MgCl2, 300 μM CaCl2). The thermodynamic parameters for proMMP9(20-445;ΔFnII) (SEQ ID NO:6) are as follows: Tm (° C.)=72 (+/−0.1), ΔUH(Tm) (cal mol^−1)=160000(+/−5000), ΔUSTm (cal mol^−1 K^−1)=434, ΔUCp (cal mol^−1 K^−1)=2400.

Compound | Kd [1] [nM] | IC50 [2] [nM] | Kd [3] [nM]
Cc1nc2ccc3sc(Nc4cc(S(N)(=O)=O)ccc4OC(C)C)nc3c2n1CC(F)(F)F [Example 136, 4-Isopropoxy-3-[7-methyl-8-(2,2,2-trifluoro-ethyl)-8H-imidazo[4′,5′:3,4]benzo[2,1-d]thiazol-2-ylamino]-benzenesulfonamide.TFA] | 590 | 1100 | 770
CCOc1ccccc1Nc1nc2c(ccc3sc(Nc4ccccc4OCC)nc32)s1 [Example 4, N,N′-Bis-(2-ethoxy-phenyl)-benzo[2,1-d;3,4-d′]bisthiazole-2,7-diamine.TFA] | 30000 | 4700 | 67000
Cn1cnc2c(Nc3nc4c(ccc5c4ncn5C)s3)cccc21 [Example 73, (1-Methyl-1H-benzoimidazol-4-yl)-(6-methyl-6H-imidazo[4′,5′:3,4]-benzo[2,1-d]thiazol-2-yl)-amine.HCl] | 7500 | 5800 | 13000
CC(C)Oc1ccc(S(N)(=O)=O)cc1Nc1nc2c(ccc3ncn(C)c32)s1 [Example 131, 4-Isopropoxy-3-(8-methyl-8H-imidazo[4′,5′:3,4]benzo[2,1-d]thiazol-2-ylamino)-benzenesulfonamide.TFA] | 2000 | 590 | > 95000
CCn1c(C)nc2ccc3sc(Nc4cc(F)ccc4OC(C)C)nc3c21 [Example 139, (8-Ethyl-7-methyl-8H-imidazo[4′,5′:3,4]benzo[2,1-d]thiazol-2-yl)-(5-fluoro-2-isopropoxy-phenyl)-amine.TFA] | 960 | 330 | > 95000
CC(C)Oc1ccc(F)cc1Nc1nc2c(ccc3ncn(CC(F)(F)F)c32)s1 [Example 142, (5-Fluoro-2-isopropoxy-phenyl)-[8-(2,2,2-trifluoro-ethyl)-8H-imidazo[4′,5′:3,4]-benzo[2,1-d]thiazol-2-yl]-amine.TFA] | 2400 | 1800 | > 95000
COc1ccc(NC(C)=O)cc1Nc1nc2c(ccc3c2ncn3C)s1 [Example 49, N-[4-Methoxy-3-(6-methyl-6H-imidazo[4′,5′:3,4]benzo[2,1-d]thiazol-2-ylamino)-phenyl]-acetamide.HCl] | 1600 | 1300 | 4600
Cc1nc2ccc3sc(Nc4cc(S(C)(=O)=O)ccc4OC(C)C)nc3c2n1C [Example 144, (7,8-Dimethyl-8H-imidazo[4′,5′:3,4]benzo[2,1-d]thiazol-2-yl)-(2-isopropoxy-5-methanesulfonyl-phenyl)-amine.TFA] | 660 | 260 | 880
CCN(CC)S(=O)(=O)c1ccc(OC)c(Nc2nc3c(ccc4c3ncn4C)s2)c1 [Example 71, N,N-Diethyl-4-methoxy-3-(6-methyl-6H-imidazo[4′,5′:3,4]-benzo[2,1-d]thiazol-2-ylamino)-benzenesulfonamide.HCl] | 1600 | 1500 | 2000
Cc1nc2ccc3sc(Nc4cc(S(C)(=O)=O)ccc4OC(C)C)nc3c2n1CC(F)(F)F [Example 145, (2-Isopropoxy-5-methanesulfonyl-phenyl)-[7-methyl-8-(2,2,2-trifluoro-ethyl)-8H-imidazo[4′,5′:3,4]benzo[2,1-d]thiazol-2-yl]-amine.TFA] | 560 | 390 | 2500
CC(C)Oc1ccc(S(N)(=O)=O)cc1Nc1nc2c(ccc3c2cnn3C)s1 [Example 102, 4-Isopropoxy-3-(6-methyl-6H-3-thia-1,6,7-triaza-as-indacen-2-ylamino)-benzenesulfonamide.TFA] | 680 | 390 | 250
CCn1ncc2c3nc(Nc4cc(S(C)(=O)=O)ccc4OC)sc3ccc21 [Example 106, (6-Ethyl-6H-3-thia-1,6,7-triaza-as-indacen-2-yl)-(5-methanesulfonyl-2-methoxy-phenyl)-amine.TFA] | 530 | 190 | 600
Cn1cnc2c3nc(Nc4cc(S(N)(=O)=O)ccc4OC(F)(F)F)sc3ccc21 [Example 64, 3-(6-Methyl-6H-imidazo[4′,5′:3,4]benzo[2,1-d]thiazol-2-ylamino)-4-trifluoromethoxy-benzenesulfonamide.HCl] | 900 | 150 | 970
COc1ccc(S(C)(=O)=O)cc1Nc1nc2c(ccc3[nH]ncc32)s1 [Example 110, (5-Methanesulfonyl-2-methoxy-phenyl)-(6H-3-thia-1,6,7-triaza-as-indacen-2-yl)-amine.TFA] | 340 | 260 | > 95000
Cc1nc2ccc3sc(Nc4cc(F)ccc4OC(C)C)nc3c2n1C [Example 140, (7,8-Dimethyl-8H-imidazo[4′,5′:3,4]benzo[2,1-d]thiazol-2-yl)-(5-fluoro-2-isopropoxy-phenyl)-amine.TFA] | 810 | 410 | > 95000
COc1ccc(S(C)(=O)=O)cc1Nc1nc2c(ccc3nc(C)n(C)c32)s1 [Example 134, (7,8-Dimethyl-8H-imidazo[4′,5′:3,4]benzo[2,1-d]thiazol-2-yl)-(5-methanesulfonyl-2-methoxy-phenyl)-amine.TFA] | 900 | 260 | 1600
Cn1cnc2c3nc(Nc4cc(C(N)=O)ccc4OC(F)(F)F)sc3ccc21 [Example 65, 3-(6-Methyl-6H-imidazo[4′,5′:3,4]-benzo[2,1-d]thiazol-2-ylamino)-4-trifluoromethoxy-benzamide.HCl] | 250 | 150 | 77
